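Cells were grown in 96-well plates and exposed to each compound for 48 hours at five concentrations; endpoints were interpolated linearly between bracketing concentrations, or set to the highest concentration if not reached. TGI: concentration producing complete growth inhibition.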
Assays:
Assay in all cases: NCI tumour cell line growth inhibition, 48 h
SK-OV-3 ovarian = tested on: SK-OV-3 ovarian
A498 renal = tested on: A498 renal
DMS 114 small cell lung = tested on: DMS 114 small cell lung
RPMI-8226 leukemia = tested on: RPMI-8226 leukemia
SR leukemia = tested on: SR leukemia
LXFL 529 NSCLC = tested on: LXFL 529 NSCLC
HCC-2998 colon = tested on: HCC-2998 colon
OVCAR-8 ovarian = tested on: OVCAR-8 ovarian
KM20L2 colon = tested on: KM20L2 colon
UACC-257 melanoma = tested on: UACC-257 melanoma
HL-60(TB) leukemia = tested on: HL-60(TB) leukemia
SF-295 CNS = tested on: SF-295 CNS
HOP-92 NSCLC = tested on: HOP-92 NSCLC
HOP-62 NSCLC = tested on: HOP-62 NSCLC
EKVX NSCLC = tested on: EKVX NSCLC
NCI-H23 lung = tested on: NCI-H23 lung
OVCAR-5 ovarian = tested on: OVCAR-5 ovarian
M14 melanoma = tested on: M14 melanoma
SNB-78 CNS = tested on: SNB-78 CNS
IGROV1 ovarian = tested on: IGROV1 ovarian
SNB-19 CNS = tested on: SNB-19 CNS
SN12C renal = tested on: SN12C renal
OVCAR-3 ovarian = tested on: OVCAR-3 ovarian
786-0 renal = tested on: 786-0 renal
HCT-116 colon = tested on: HCT-116 colon
COLO 205 colon = tested on: COLO 205 colon
SF-539 CNS = tested on: SF-539 CNS
CAKI-1 renal = tested on: CAKI-1 renal
NCI-H226 lung = tested on: NCI-H226 lung
OVCAR-4 ovarian = tested on: OVCAR-4 ovarian
NCI-H460 lung = tested on: NCI-H460 lung
NCI-H522 lung = tested on: NCI-H522 lung
UACC-62 melanoma = tested on: UACC-62 melanoma
UO-31 renal = tested on: UO-31 renal
K-562 leukemia = tested on: K-562 leukemia
SNB-75 CNS = tested on: SNB-75 CNS
U251 CNS = tested on: U251 CNS
SW-620 colon = tested on: SW-620 colon
HCT-15 colon = tested on: HCT-15 colon
XF 498 CNS = tested on: XF 498 CNS
MALME-3M melanoma = tested on: MALME-3M melanoma
SF-268 CNS = tested on: SF-268 CNS
A549 NSCLC = tested on: A549 NSCLC
KM12 colon = tested on: KM12 colon
SK-MEL-5 melanoma = tested on: SK-MEL-5 melanoma
CCRF-CEM leukemia = tested on: CCRF-CEM leukemia
DLD-1 colon = tested on: DLD-1 colon
RXF-631 renal = tested on: RXF-631 renal
HOP-18 NSCLC = tested on: HOP-18 NSCLC
TK-10 renal = tested on: TK-10 renal
MOLT-4 leukemia = tested on: MOLT-4 leukemia
HT29 colon = tested on: HT29 colon
M19-MEL melanoma = tested on: M19-MEL melanoma
RXF 393 renal = tested on: RXF 393 renal
SK-MEL-2 melanoma = tested on: SK-MEL-2 melanoma
LOX IMVI melanoma = tested on: LOX IMVI melanoma
DMS 273 small cell lung = tested on: DMS 273 small cell lung

Measured: TGI

O=C1C=C(O)C(=Cc2c(O)cc(O)cc2O)C(O)=C1
> 100 µM: all assays above
